Assays:
Type in all cases: biochemical
[1] = tested on: Normal human pooled plasma; test: Prothrombin time (PT) clotting assay; settings: concentration at which prothrombin time is prolonged by 2x normal, reported as less than or greater than 50 uM
Summary of the method: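 Normal human pooled plasma incubated with 100 uM compound or saline, then thromboplastin (human tissue factor) added and clotting time recorded in a coagulation machine. Compounds exceeding 3× normal PT (11.0 s) are titrated to find the concentration doubling PT.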

Human thrombin = target: T1, Human thrombin (Homo sapiens, UniProt P00734); test: Thrombin assay (chromogenic substrate); settings: reported only as less than or greater than 30 uM; read-out: Thrombin (II) IC50
T1 construct: converts prothrombin (II) to thrombin (IIa); purchased Calbiochem, La Jolla, Calif
Summary of the method: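 Chromogenic assay with p-nitroaniline-releasing substrate; thrombin activity read as OD405 nm. Percent inhibition calculated from experimental versus control absorbance.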

Human factor Xa = target: T2, Human factor Xa (Homo sapiens, UniProt P00742); test: Xa assay (chromogenic substrate S-2765); settings: reported only as less than or greater than 30 uM; read-out: Factor Xa (II) IC50
T2 construct: purchased Enzyme Research Laboratories, South Bend Ind
T2 sequence (P00742 235-488 limits assumed): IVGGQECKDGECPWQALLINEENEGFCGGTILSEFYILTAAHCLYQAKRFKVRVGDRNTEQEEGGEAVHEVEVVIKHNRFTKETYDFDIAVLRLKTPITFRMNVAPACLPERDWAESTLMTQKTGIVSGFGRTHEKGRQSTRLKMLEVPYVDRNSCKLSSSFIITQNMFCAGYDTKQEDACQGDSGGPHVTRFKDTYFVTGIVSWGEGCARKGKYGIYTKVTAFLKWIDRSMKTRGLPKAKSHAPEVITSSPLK
T2 sequence (P00742 41-179 limits assumed): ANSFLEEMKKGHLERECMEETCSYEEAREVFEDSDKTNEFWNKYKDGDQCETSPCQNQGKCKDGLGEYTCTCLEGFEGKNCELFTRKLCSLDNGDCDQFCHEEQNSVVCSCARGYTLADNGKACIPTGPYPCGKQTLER
Summary of the method: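 Human factor Xa (0.3 nM) was incubated with inhibitor and 0.15 mM S-2765 in 50 mM Tris-HCl pH 8.0, 100 mM NaCl, 0.1% BSA. After 60 min at RT, p-nitroaniline release was read at 405 nm after background subtraction. Percent inhibition was calculated against uninhibited control.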

[2] = target: T3, recombinant soluble tissue factor and recombinant human factor VIIa (TF-VIIa) (Homo sapiens, UniProt P08709); test: TF-VIIa assay (chromogenic substrate hydrolysis); settings: reported only as less than or greater than 0.1 uM
T3 construct: conversion of coagulation factor VII to VIIa by factor Xa; purchased American Diagnostica, Greenwich CT; host or cells: soluble TF made in house in E. coli
T3 sequence (P08709 213-466 limits assumed): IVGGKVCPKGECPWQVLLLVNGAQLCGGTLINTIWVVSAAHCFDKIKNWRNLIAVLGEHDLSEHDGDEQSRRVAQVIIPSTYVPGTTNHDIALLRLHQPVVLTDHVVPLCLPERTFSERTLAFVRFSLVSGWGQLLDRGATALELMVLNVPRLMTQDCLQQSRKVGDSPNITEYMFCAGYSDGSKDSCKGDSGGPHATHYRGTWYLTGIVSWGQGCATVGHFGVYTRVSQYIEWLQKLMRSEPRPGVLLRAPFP
T3 sequence (P08709 61-212 limits assumed): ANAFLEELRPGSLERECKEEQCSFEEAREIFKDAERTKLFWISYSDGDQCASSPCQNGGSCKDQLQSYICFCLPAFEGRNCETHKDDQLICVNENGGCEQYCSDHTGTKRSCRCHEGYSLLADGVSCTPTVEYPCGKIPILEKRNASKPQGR
T3 sequence (P13726 33-251 partner limits assumed): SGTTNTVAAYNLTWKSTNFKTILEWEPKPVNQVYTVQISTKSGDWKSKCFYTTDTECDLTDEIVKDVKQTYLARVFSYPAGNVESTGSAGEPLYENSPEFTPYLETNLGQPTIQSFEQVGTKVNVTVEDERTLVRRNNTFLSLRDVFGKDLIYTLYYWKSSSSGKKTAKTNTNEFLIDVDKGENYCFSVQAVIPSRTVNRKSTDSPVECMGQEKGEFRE
Summary of the method: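 100 nM soluble tissue factor and 2 nM recombinant human factor VIIa added to 0.4 mM N-methylsulfonyl-D-phe-gly-arg-p-nitroaniline with inhibitor in 50 mM Tris-HCl pH 8.0, 5 mM CaCl2, 100 mM NaCl, 0.1% BSA. Percent inhibition from OD405 versus control.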

Row | SMILES | PT (Prothrombin time) 2xPT [1] [µM] | IC50 (Human thrombin) [µM] | IC50 (Human factor Xa) [µM] | IC50 [2] [µM]
1 | CC[C@@H](C)NC(=O)c1cc(N)cc(-c2cnc(NC(C)C)c(=O)n2CC(=O)NCc2c(O)cc(C(=N)N)cc2OC)c1 [Example 198] | <50.0 | > 30 | > 30 | < 0.1
2 | CC[C@@H](C)NC(=O)c1cc(N)cc(-c2cnc(NC(C)C)c(=O)n2CC(=O)NCc2c(O)cc(C(=N)N)cc2O)c1 [Example 199] | <50.0 | > 30 | > 30 | < 0.1
3 | CC[C@H](C)NC(=O)c1cc(N)cc(-c2cnc(N[C@H](C)C(C)C)c(=O)n2CC(=O)NCc2ccc(C(=N)N)cc2)c1.O=C(O)C(F)(F)F.O=C(O)C(F)(F)F [Example 202] | <50.0 | < 30 | > 30 | < 0.1
4 | CC[C@@H](C)Nc1ncc(-c2cc(N)cc(C(=O)N[C@@H](C)CC)c2)n(CC(=O)NCc2ccc(C(=N)N)cc2)c1=O.O=C(O)C(F)(F)F.O=C(O)C(F)(F)F [Example 203] | <50.0 | < 30 | > 30 | < 0.1
5 | N=C(N)c1ccc(CNC(=O)Cn2c(-c3cc(N)cc(C(=O)O)c3)cnc(NC3CC3)c2=O)cc1.O=C(O)C(F)(F)F [Example 204, 3-amino-5-[1-[2-({4-[amino(imino)methyl]benzyl}amino)-2-oxoethyl]-5-(cyclopropylamino)-6-oxo-1,6-dihydropyrazin-2-yl]benzoic Acid] | <50.0 | > 30 | > 30 | < 0.1
6 | CCOC(=O)c1cc(N)cc(-c2cnc(NC3CC3)c(=O)n2CC(=O)NCc2ccc(C(=N)N)cc2)c1.O=C(O)C(F)(F)F [Example 207, Ethyl 3-amino-5-[1-[2-({4-[amino(imino)methyl]benzyl}amino)-2-oxoethyl]-5-(cyclopropylamino)-6-oxo-1,6-dihydropyrazin-2-yl]benzoate] | <50.0 | > 30 | > 30 | < 0.1
7 | CCC(CC)COc1cc(N)cc(-c2cnc(NC(C)C)c(=O)n2CC(=O)NCc2ccc(C(=N)N)cc2)c1.O=C(O)C(F)(F)F.O=C(O)C(F)(F)F [Example 209] | 50 | > 30 | > 30 | < 0.1
8 | CC(C)Nc1ncc(-c2cc(N)cc(OCCc3ccccc3)c2)n(CC(=O)NCc2ccc(C(=N)N)cc2)c1=O.O=C(O)C(F)(F)F.O=C(O)C(F)(F)F [Example 211] | <50.0 | > 30 | > 30 | < 0.1
9 | CC(C)Nc1ncc(-c2cc(N)cc(OC3CCCC3)c2)n(CC(=O)NCc2ccc(C(=N)N)cc2)c1=O.O=C(O)C(F)(F)F.O=C(O)C(F)(F)F [Example 212] | <50.0 | > 30 | > 30 | < 0.1
10 | CC(C)Nc1ncc(-c2cc(N)cc(OCC(C)(C)N(C)C)c2)n(CC(=O)NCc2ccc(C(=N)N)cc2)c1=O.O=C(O)C(F)(F)F.O=C(O)C(F)(F)F [Example 213] | <50.0 | > 30 | > 30 | < 0.1
11 | CC(C)CCOc1cc(N)cc(-c2cnc(NC(C)C)c(=O)n2CC(=O)NCc2ccc(C(=N)N)cc2)c1.O=C(O)C(F)(F)F.O=C(O)C(F)(F)F [Example 214] | <50.0 | > 30 | > 30 | < 0.1
12 | CC(C)Nc1ncc(-c2cc(N)cc(OCCC(C)(C)C)c2)n(CC(=O)NCc2ccc(C(=N)N)cc2)c1=O.O=C(O)C(F)(F)F.O=C(O)C(F)(F)F [Example 215] | <50.0 | > 30 | > 30 | < 0.1
13 | CC(C)Nc1ncc(-c2cc(N)cc(OC(C)C)c2)n(CC(=O)NCc2ccc(C(=N)N)cc2)c1=O.O=C(O)C(F)(F)F.O=C(O)C(F)(F)F [Example 216] | <50.0 | > 30 | > 30 | < 0.1
14 | CC(C)Nc1ncc(-c2cc(N)cc(OCC(C)(C)CN(C)C)c2)n(CC(=O)NCc2ccc(C(=N)N)cc2)c1=O.O=C(O)C(F)(F)F.O=C(O)C(F)(F)F [Example 217] | <50.0 | < 30 | > 30 | < 0.1
15 | CC(C)Nc1ncc(-c2cc(N)cc(OC3Cc4ccccc4C3)c2)n(CC(=O)NCc2ccc(C(=N)N)cc2)c1=O.O=C(O)C(F)(F)F.O=C(O)C(F)(F)F [Example 218] | <50.0 | > 30 | > 30 | < 0.1
16 | COCCOc1cc(N)cc(-c2cnc(NC(C)C)c(=O)n2CC(=O)NCc2ccc(C(=N)N)cc2)c1.O=C(O)C(F)(F)F.O=C(O)C(F)(F)F [Example 219] | <50.0 | > 30 | > 30 | < 0.1
17 | CC(C)Nc1ncc(-c2cc(N)cc(OCC3CCCC3)c2)n(CC(=O)NCc2ccc(C(=N)N)cc2)c1=O.O=C(O)C(F)(F)F.O=C(O)C(F)(F)F [Example 220] | <50.0 | > 30 | > 30 | < 0.1
18 | CC(C)Nc1ncc(-c2cc(N)cc(OCC3CCCCC3)c2)n(CC(=O)NCc2ccc(C(=N)N)cc2)c1=O.O=C(O)C(F)(F)F.O=C(O)C(F)(F)F [Example 221] | >50.0 | > 30 | > 30 | < 0.1
19 | CCCCOc1cc(N)cc(-c2cnc(NC(C)C)c(=O)n2CC(=O)NCc2ccc(C(=N)N)cc2)c1.O=C(O)C(F)(F)F.O=C(O)C(F)(F)F [Example 222] | <50.0 | > 30 | > 30 | < 0.1
20 | CC(C)Nc1ncc(-c2cc(N)cc(OCC3CC3)c2)n(CC(=O)NCc2ccc(C(=N)N)cc2)c1=O.O=C(O)C(F)(F)F.O=C(O)C(F)(F)F [Example 223] | <50.0 | > 30 | > 30 | < 0.1
21 | CCC(C)Oc1cc(N)cc(-c2cnc(NC(C)C)c(=O)n2CC(=O)NCc2ccc(C(=N)N)cc2)c1.O=C(O)C(F)(F)F.O=C(O)C(F)(F)F (centres unmarked) [Example 224] | <50.0 | > 30 | > 30 | < 0.1
22 | CC(C)Nc1ncc(-c2cc(N)cc(OC3CCCCC3)c2)n(CC(=O)NCc2ccc(C(=N)N)cc2)c1=O.O=C(O)C(F)(F)F.O=C(O)C(F)(F)F [Example 225] | >50.0 | > 30 | > 30 | < 0.1
23 | CC(C)Nc1ncc(-c2cc(N)cc(-c3nnn[nH]3)c2)n(CC(=O)NCc2ccc(C(=N)N)cc2)c1=O.O=C(O)C(F)(F)F [Example 227, N-{4-[amino(imino)methyl]benzyl}-2-[6-[3-amino-5-(1H-tetraazol-5-yl)phenyl]-3-(isopropylamino)-2-oxopyrazin-1 (2H)-yl]acetamide] | <50.0 | > 30 | > 30 | < 0.1
24 | CC(C)Nc1ncc(-c2cc(N)cc(S(=O)(=O)CC(C)(C)C)c2)n(CC(=O)NCc2ccc(C(=N)N)cc2)c1=O.O=C(O)C(F)(F)F.O=C(O)C(F)(F)F [Example 228] | <50.0 | > 30 | > 30 | < 0.1
25 | CCC(CC)CS(=O)(=O)c1cc(N)cc(-c2cnc(NC(C)C)c(=O)n2CC(=O)NCc2ccc(C(=N)N)cc2)c1.O=C(O)C(F)(F)F.O=C(O)C(F)(F)F [Example 229] | <50.0 | > 30 | > 30 | < 0.1
26 | CCCCS(=O)(=O)c1cc(N)cc(-c2cnc(NC(C)C)c(=O)n2CC(=O)NCc2ccc(C(=N)N)cc2)c1.O=C(O)C(F)(F)F.O=C(O)C(F)(F)F [Example 230] | <50.0 | > 30 | > 30 | < 0.1
27 | CCC(CC)S(=O)(=O)c1cc(N)cc(-c2cnc(NC(C)C)c(=O)n2CC(=O)NCc2ccc(C(=N)N)cc2)c1.O=C(O)C(F)(F)F.O=C(O)C(F)(F)F [Example 231] | <50.0 | > 30 | > 30 | < 0.1
28 | CCS(=O)(=O)c1cc(N)cc(-c2cnc(NC(C)C)c(=O)n2CC(=O)NCc2ccc(C(=N)N)cc2)c1.O=C(O)C(F)(F)F.O=C(O)C(F)(F)F [Example 232] | <50.0 | > 30 | > 30 | < 0.1
29 | CC(C)Nc1ncc(-c2cc(N)cc(S(=O)(=O)CC3CCCCC3)c2)n(CC(=O)NCc2ccc(C(=N)N)cc2)c1=O.O=C(O)C(F)(F)F.O=C(O)C(F)(F)F [Example 233] | <50.0 | > 30 | > 30 | < 0.1
